Measured values as given in patent publication US5191079A, “Quinolinecarboxylic acid derivatives” (priority 1990, dated 1993).
≈ marks a conversion by molar mass, not a printed value.

Assays:
[1] = system: Staphylococcus aureus IID 803; assay: Effect on treatment of general infectious disease (systemic infection in mice), Experiment 3; format: in vivo, Staphylococcus aureus; ddY male mice; conditions: Staphylococcus aureus, IID803, 168 h; oral, 1 h after i.p. infection, mice, survival after one week, average of several tests; read-out: 50% effective dose (ED50)
Experimental: Staphylococcus aureus IID 803
The test microorganism was subjected to standing culture in Brain heart infusion broth (manufactured by DIFCO) at 37° C. for 16 to 18 hours. The culture was then diluted with PBS (Dulbecco's phosphate buffered saline) to adjust the concentration of bacteria to 4×10^7 -8×10^7 CFU/ml. The mixture was mixed with an equivalent amount of 10% (w/v) Mucin (BACTO MUCIN BACTERIOLOGICAL, manufactured by Difco Co.) to prepare a bacterial suspension. The thus prepared bacterial suspension (0.5 ml each) was intraperitoneally inoculated to ddY male mice (5 weeks age, weighing 24-27 g, 5 mice in each group), to infect the animals, by which systemic infectious model was prepared.
The mice were daily observed for one week, and from the survival number of mice after one week, the 50% effective dose (ED50) was calculated by Weil method. This test was repeated several times and the average of ED50 was calculated.

[2] = system: Escherichia coli NIHJ JC-2; assay: MIC, Experiment 1; format: cell-based; conditions: NIHJJC2, E. coli NIHJ JC-2, Gram -, read-out: Min. inhib. concentr. (MIC)
Experimental: (§1) The compounds of the present invention (B, E, G, H, M, N, O, P and Q) were each dissolved in dimethylsulfoxide to prepare a solution of 5000 μg/ml in concentration. The compounds of the present invention (I, J and K) and the known compound (Y) were each dissolved in sterilized distilled water to prepare a solution of 5000 μg/ml in concentration. Each solution was diluted with sterilized distilled water to prepare a standard solution with a concentration of each test compound: 1000 μg/ml. The test was carried out by a method as appointed by Japan Society of Chemotherapy [cf. Chemotherapy, 29, 76-79 (1981), TOKYO].
(§2) As to Streptococcus pneumoniae and Streptococcus pyogenes, Brain heart infusion broth (manufactured by DIFCO) was used as the medium for the preculture thereof, and a heart infusion agar medium containing 5% defibrinated horse blood (manufactured by Nissui Seiyaku K. K., Japan) was used as the medium for the measurement of minimum inhibitory concentration (MIC). As to other microorganisms, a sensitivity test broth (manufactured by Nissui Seiyaku K. K.) was used as the medium for the preculture thereof, and a sensitivity test agar medium (manufactured by Nissui Seiyaku K. K.) was used as the medium for the measurement of MIC.

[3] = system: Pseudomonas aeruginosa NCTC 10490; assay: MIC, Experiment 1; format: cell-based; conditions: NCTC10490, P. aeruginosa NCTC 10490, Gram -, read-out: Min. inhib. concentr. (MIC)
Experimental: as §1, §2

[4] = system: Bacillus subtilis ATCC 6633; assay: MIC, Experiment 1; format: cell-based; conditions: ATCC6633, B. subtilis ATCC 6633, Gram +, read-out: Min. inhib. concentr. (MIC)
Experimental: as §1, §2

[5] = system: Staphylococcus aureus Terajima (IID 670); assay: MIC, Experiment 1; format: cell-based; conditions: IID670, S. aureus Terajima (IID 670), Gram +, read-out: Min. inhib. concentr. (MIC)
Experimental: as §1, §2

[6] = system: Staphylococcus aureus FDA 243; assay: MIC, Experiment 1; format: cell-based; conditions: FDA243, S. aureus FDA 243, Gram +, read-out: Min. inhib. concentr. (MIC)
Experimental: as §1, §2

Bacillus cereus IAM 1029 = assay: MIC, Experiment 1; format: cell-based; conditions: IAM1029, B. cereus IAM 1029, Gram +, read-out: Min. inhib. concentr. (MIC)
Experimental: as §1, §2

[7] = system: Staphylococcus aureus IID 803; assay: MIC, Experiment 1; format: cell-based; conditions: IID803, S. aureus IID 803, Gram +, read-out: Min. inhib. concentr. (MIC)
Experimental: as §1, §2

[8] = system: Staphylococcus aureus ATCC 9144; assay: MIC, Experiment 1; format: cell-based; conditions: ATCC9144, S. aureus ATCC 9144, Gram +, read-out: Min. inhib. concentr. (MIC)
Experimental: as §1, §2

[9] = system: Proteus mirabilis IFO 3849; assay: MIC, Experiment 1; format: cell-based; conditions: IFO3849, P. mirabilis IFO 3849, Gram -, read-out: Min. inhib. concentr. (MIC)
Experimental: as §1, §2

[10] = system: Staphylococcus aureus FDA 209P JC-1; assay: MIC, Experiment 1; format: cell-based; conditions: FDA209P, S. aureus FDA 209P JC-1, Gram +, read-out: Min. inhib. concentr. (MIC)
Experimental: as §1, §2

[11] = system: Micrococcus luteus ATCC 9341; assay: MIC, Experiment 1; format: cell-based; conditions: ATCC9341, M. luteus ATCC 9341, Gram +, read-out: Min. inhib. concentr. (MIC)
Experimental: as §1, §2

[12] = system: Acinetobacter calcoaceticus Ac 54; assay: MIC, Experiment 1; format: cell-based; conditions: AC54, A. calcoaceticus Ac 54, Gram -, read-out: Min. inhib. concentr. (MIC)
Experimental: as §1, §2

[13] = system: Klebsiella pneumoniae PCI-602; assay: MIC, Experiment 1; format: cell-based; conditions: PCI602, K. pneumoniae PCI-602, Gram -, read-out: Min. inhib. concentr. (MIC)
Experimental: as §1, §2

Enterobacter cloacae 963 = assay: MIC, Experiment 1; format: cell-based; conditions: E. cloacae 963, Gram -, read-out: Min. inhib. concentr. (MIC)
Experimental: as §1, §2

[14] = system: Staphylococcus aureus Cowan I (IID 975); assay: MIC, Experiment 1; format: cell-based; conditions: IID975, S. aureus Cowan I (IID 975), Gram +, read-out: Min. inhib. concentr. (MIC)
Experimental: as §1, §2

[15] = system: clinically isolated Enterococcus faecium; assay: In vitro antibacterial activity against clinical isolates, Experiment 2; format: cell-based
Experimental: (§3) The above solutions were then diluted with sterilized distilled water to prepare a standard solution with a concentration of the test compound: 1000 μg/ml each.
(§4) For the preculture of each microorganism, there was used as the medium a sensitivity test broth (manufactured by Nissui Seiyaku K. K., Japan), and for the measurement of MIC, there was used a sensitivity test agar medium (manufactured by Nissui Seiyaku K. K.).
(§5) The clinically isolates used above were isolated from Nov. 1988 to Jun. 1989 and were obtained from Research Section, Tokyo Clinical Research Center.

[16] = system: clinically isolated Enterococcus faecalis; assay: as above; format: cell-based
Experimental: as §3, §4, §5

[17] = system: clinically isolated Staphylococcus aureus; assay: as above; format: cell-based
Experimental: as §3, §4, §5

[18] = system: clinically isolated Staphylococcus epidermidis; assay: as above; format: cell-based; conditions: Staphylococcus epidermidis
Experimental: as §3, §4, §5

`CC1COc2c(N3CCN(C)CC3)c(F)cc3c(=O)c(C(=O)O)cn1c23` (stereo not drawn) [Compound (X), 9-Fluoro-3-methyl-10-(4-methyl-1-piperazinyl)-7-oxo-2,3-dihydro-7H-pyrido[1,2,3-de][1,4]benzoxazine-6-carboxylic acid, reference compound] gave an ED50 [1] of 11.4 mg/kg, an MIC [2] of 0.1 µg/mL (≈ 0.277 µM) and an MIC [3] of 1.56 µg/mL (≈ 4.32 µM). It also gave an MIC [4] of 0.1 µg/mL (≈ 0.277 µM), an MIC [5] of 0.39 µg/mL (≈ 1.08 µM) and an MIC [6] of 0.39 µg/mL (≈ 1.08 µM). For the same molecule, the MIC (Bacillus cereus IAM 1029) was 0.39 µg/mL (≈ 1.08 µM), the MIC [7] was 0.39 µg/mL (≈ 1.08 µM) and the MIC [8] was 0.39 µg/mL (≈ 1.08 µM). For the same molecule, the MIC [9] was 0.39 µg/mL (≈ 1.08 µM), the MIC [10] was 0.39 µg/mL (≈ 1.08 µM) and the MIC [11] was 3.13 µg/mL (≈ 8.66 µM). The MIC [12] was 0.39 µg/mL (≈ 1.08 µM), the MIC [13] was 0.05 µg/mL (≈ 0.138 µM) and the MIC (Enterobacter cloacae 963) was 0.2 µg/mL (≈ 0.553 µM). The MIC [14] was 0.39 µg/mL (≈ 1.08 µM), the MIC90 [15] was 100 µg/mL (≈ 277 µM) and the MIC50 ([15]; 25 clinical strains E. faecium, 50% of strains, read-out: MIC50) was 25 µg/mL (≈ 69.2 µM). It also gave an MIC50 [16] of 3.13 µg/mL (≈ 8.66 µM), an MIC ([16]; 25 clinical strains E. faecalis) of 1.56 to 100 µg/mL (≈ 4.32 to 277 µM) and an MIC90 ([16]; 25 clinical strains E. faecalis, 90% of strains, read-out: MIC90) of 50 µg/mL (≈ 138 µM). It also gave an MIC50 [17] of 1.56 µg/mL (≈ 4.32 µM), an MIC90 [17] of 25 µg/mL (≈ 69.2 µM) and an MIC ([17]; 25 clinical strains S. aureus incl. 16 methicillin resistant) of 0.39 to 50 µg/mL (≈ 1.08 to 138 µM). The MIC90 [18] was 25 µg/mL (≈ 69.2 µM), the MIC ([18]; 25 clinical strains S. epidermidis) was 0.2 to 50 µg/mL (≈ 0.553 to 138 µM) and the MIC50 ([18]; 25 clinical strains S. epidermidis, 50% of strains, read-out: MIC50) was 0.78 µg/mL (≈ 2.16 µM).
